The subject of assay [1] is indomethacin-induced gastric ulcers. Briefly: Indomethacin-induced ulcer model, preventive treatment: gastric lesions. It counts as in vivo, male Wistar rats. The arrangement: key to GA1 (gastroprotective activity calculated for number of lesions): GA1 = Pauls Index of control / Pauls Index of treated group; key to GA2 (gastroprotective activity calculated for lesion size): GA2 = Ulcer Index of control / Ulcer Index of treated group; key to Ulcer Index: UI = mean lesion area in group x % animals with lesions / 100; Small round Size / Total Size / Large round Size / Linear Size / Lesion Size: unit not given here. The conditions noted are these: for # Lesions / % Animals with Ulcers / GA1 (gastroprotective activity calculated for number of lesions) / GA2 (gastroprotective activity calculated for lesion size) / Lesion Size / PI / Ulcer Index / Large round Amount / Large round Size / Linear Amount / Linear Size / Small round Amount / Small round Size / Total Amount / Total Size: preventive; for Large round Amount / Large round Size / Linear Amount / Linear Size / Small round Amount / Small round Size / Total Amount / Total Size: indomethacin-induced ulcers. How it is done:
(§1) All studies were conducted on male Wistar rats weighing 220 ± 20 g, obtained from Rappolovo nursery (Leningrad oblast). For 14 days prior to the experiment, the animals were held in isolation. The animals were handled in accordance with the European Convention for the Protection of Vertebrate Animals used for Experimental and Other Scientific Purposes (Strasburg, 1986). The animals were held in standard plastic cages and fed a standard diet of PK120-3 (granulated feed in accordance with order # 1179 M3 USSR 10/10/1983) with a free access to water.
(§2) Animals' body weight changes were monitored throughout the experiment. The experimental animals were then sacrificed by decapitation, and their blood was collected in test tubes. The stomachs were extracted, dissected along the major curve, rinsed with cold saline solution, and the mucosa was carefully examined through a magnifying glass under bright lights. The mucosa was inspected for color, the presence of hyperemia and its intensity. The number of lesions, which were differentiated into small round (less than 1 mm), linear, and large lesions (more than 1mm) and the size of the area they covered were calculated. The average number of lesions per one animal in a group and the percentage of animals with ulcers were also calculated. Pauls Index (PI) was used as an integral indicator of the number of lesions and was calculated as follows: • PI = average number of lesions in a group x % of animals with lesions/100 [Pauls F., Wick A.M.,Mac. Key E.M. et al. An assau method for anti ulcer substances // Gastroenterology.- 1947. #8.- p.p.774 - 782]. Ulcer index UI was calculated as: UI = average lesion area size in the group x % of animals with lesions/100; gastroprotective activity GA1 was calculated as: GA1 = PI of the control group/PI of the experimental group, GA2 = UI of the control group/UI of the experimental group.
Five groups of 10 animals per group were prepared for the experiment as described in Example 1.
In each series of experiments, the animals were divided into experimental and control groups at 10 animals per group. The animals in the experimental group were orally administered the proposed medication or a comparator drug, and the control animals were given distilled water in the same amount. • control group received distilled water per os; • experimental group 1 received 0.1 mkg/kg N-isovaleroyl-L-glutamyl-L-tryptophan; • experimental group 2 received 10 mkg/kg N-isovaleroyl-L-glutamyl-L-tryptophan; • experimental group 3 received 200 mkg/kg of the comparator drug Sucralfate.
The efficacy of the course of preventive treatment with the claimed composition was evaluated 24 hrs. post indomethacin administration. The study was conducted as in Example 1.

In assay [2] the test system is stress-induced gastric ulcers. Briefly: Water-immersion stress model: gastric lesions, preventive treatment. It counts as in vivo, male Wistar rats. As to conditions: 200 mg/kg + stress. How it is done: as §1
In each series, the animals were divided into experimental and control groups with 10 rats per group. The animals in the experimental groups were orally administered the claimed preparation or a comparator drug, and the control group animals received distilled water in the same amount.
The experimental animals were divided into 5 groups, 10 animals each. The animals received the following therapy: • control group received distilled water per os; • experimental group 1 received 0.1 mkg/kg N-isovaleroyl-L-glutamyl-L-tryptophan; • experimental group 2 received 10 mkg/kg N-isovaleroyl-L-glutamyl-L-tryptophan; […]; • experimental group 4 received 50 mkg/kg of the comparator drug Misoprostol;
The experiment was conducted as follows: • The proposed drug, comparator drugs, and distilled water were administered once daily over 7 days, and on the day of the ulcerogenic stress induction one hour prior to the stress.
The rats deprived of food for 18 hrs. were placed into special cases and immersed in water vertically to the level of their xyphoids. The animals were held in this position for 5 hrs. at 23° C water temperature. After that, the animals were removed from the experiment.
as §2, with “group. The proposed drug was considered active when GA ≥ 2.” for “group.”

[3] abbreviates: 0.1 mkg/kg + Indomethacin 20 mg/kg.
Where [4] appears, read: 10 mkg/kg + Indomethacin 20 mg/kg.

Take “N-isovaleroyl-L-glutamyl-L-tryptophan [VGT preparation]”: in assay [1] (setting [3]), the “# Lesions” value is on record as 7.5 ± 1.0, the “% Animals with Ulcers” value is recorded as 100%, the “GA1 (gastroprotective activity calculated for number of lesions)” value was 2.84 and the “GA2 (gastroprotective activity calculated for lesion size)” value is listed as 5.51. In assay [1] (setting [3]), the “Lesion Size” value is listed as 4.1 ± 0.9, the PI is reported as 7.5 and the “Ulcer Index” value was 4.1. Also, in assay [1] (0.1 mkg/kg), the “Large round Amount” value is listed as 2.7 ± 0.5, the “Large round Size” value was 1.4 ± 0.3, the “Linear Amount” value is 2.0 ± 0.7 and the “Linear Size” value was 1.9 ± 0.7. In addition, in assay [1] (0.1 mkg/kg), the “Small round Amount” value is reported as 2.8 ± 0.7, the “Small round Size” value is given as 0.8 ± 0.2, the “Total Amount” value is 7.5 ± 1.0 and the “Total Size” value was 4.1 ± 0.9. Besides, in assay [1] (setting [4]), the “# Lesions” value was 8.3 ± 1.7, the “% Animals with Ulcers” value was 100%, the “GA1 (gastroprotective activity calculated for number of lesions)” value is reported as 2.57 and the “GA2 (gastroprotective activity calculated for lesion size)” value is 5.51. Also, in assay [1] (setting [4]), the “Lesion Size” value is given as 4.1 ± 1.6, the PI is reported as 8.3 and the “Ulcer Index” value is recorded as 4.1. In addition, in assay [1] (10.0 mkg/kg), the “Large round Amount” value is listed as 3.5 ± 0.9, the “Large round Size” value was 1.7 ± 0.6, the “Linear Amount” value is on record as 1.2 ± 0.5 and the “Linear Size” value is reported as 1.8 ± 1.1. For the same substance, in assay [1] (10.0 mkg/kg), the “Small round Amount” value is reported as 3.6 ± 1.3, the “Small round Size” value was 0.5 ± 0.1, the “Total Amount” value is 8.3 ± 1.7 and the “Total Size” value is 4.1 ± 1.6. Also, the “size of the lesions in the gastric mucosa reduced” value in assay [1] (preventive treatment, indomethacin-induced lesions) is 5 times.
Consider “aluminum complex of beta-D-fructofuranosyl-alpha-D-glucopyranoside octakis (hydrosulfate) [Sucralfate]”, for which, in assay [2], the “# Lesions” value was 8.8 ± 1.4, the “% Animals with Ulcers” value stood at 90%, the “GA1 (gastroprotective activity calculated for number of lesions)” value is on record as 2.79 and the “GA2 (gastroprotective activity calculated for lesion size)” value is listed as 2.99. In assay [2], the “Large round Amt.” value is listed as 3.9 ± 0.8, the “Large round Size” value turned out to be 2.4 ± 0.6, the “Lesion Size” value amounted to 7.5 ± 1.5 and the “Linear Amt.” value is 2.5 ± 0.6. Besides, in assay [2], the “Linear Size” value is reported as 4.5 ± 1.0, the “Pauls Index” value is given as 7.92, the “Small round Amt.” value is 2.4 ± 0.7 and the “Small round Size” value is 0.7 ± 0.2. For the same substance, in assay [2], the “Total Amt.” value is recorded as 8.8 ± 1.4, the “Total Size” value was 7.5 ± 1.5 and the “Ulcer Index” value is on record as 6.75.

Source of the values: patent EP2601963B1, “N-ISOVALEROYL-L-GLUTAMYL-L-TRYPTOPHAN AS AN AGENT INHIBITING THE FORMATION OF ULCERS IN THE STOMACH AND THE DUODENUM” (Obshestvo S Ogranichennoj Otvetstvennostju "CytoNIR", priority 2010, dated 2015).
